Laboratory results: US20240269139A1, “COMPOUNDS FOR TARGETED PROTEIN DEGRADATION OF KINASES” (DANA-FARBER CANCER INSTITUTE, INC., priority 2020, published 2024)
Like-named read-outs stand apart in the source and are kept apart here.

What was measured:
Type in all cases: cell-based
[1] = biological target: protein kinases (human kinome) (Homo sapiens, UniProt P30291)
From the text: (§1) Although development of targeted protein degraders requires a POI binder, among already-liganded proteins such as kinases, it was hypothesized that different targets would have a different propensity for current approaches to degrader-mediated destruction, which was termed ‘degradability’. […] It was rationalized that the probability of identifying the same kinase as a false positive in multiple treatments is low, therefore this analysis served to also assess the robustness of our data and subsequent interpretations. […] Overall, 62 protein kinases were degraded in more than 10 independent treatments, and remarkably, 9 of these (CDK4, AURKA, FER, WEE1, BLK. LIMK2, CDK6, GAK, LIMK1) were each degraded in at least 40 of the 154 independent treatments, emphasizing their predisposition to induced degradation (FIG. 1G; Appendix I).
(§2) Next, the frequency of degradation assessment was corrected for over-representation of molecules in the full dataset by omitting replicate profiling of compounds under different experimental conditions, to remove any bias. […] Unsurprisingly, the top degradable kinases mirror those from the previous analysis (CDK4, AURKA, FER, WEE1, BLK), confirming that in sufficiently large datasets, even with over-representation of certain molecules, frequency of degradation is a good measure of general tractability.

[2] = biological target: protein kinases (human kinome) (Homo sapiens, UniProt P11802)
From the text: as §1, §2

[3] = biological target: T1, protein kinases (human kinome) (Homo sapiens, UniProt Q08881); settings: experiment wp134
T1 sequence (Q08881 1-620): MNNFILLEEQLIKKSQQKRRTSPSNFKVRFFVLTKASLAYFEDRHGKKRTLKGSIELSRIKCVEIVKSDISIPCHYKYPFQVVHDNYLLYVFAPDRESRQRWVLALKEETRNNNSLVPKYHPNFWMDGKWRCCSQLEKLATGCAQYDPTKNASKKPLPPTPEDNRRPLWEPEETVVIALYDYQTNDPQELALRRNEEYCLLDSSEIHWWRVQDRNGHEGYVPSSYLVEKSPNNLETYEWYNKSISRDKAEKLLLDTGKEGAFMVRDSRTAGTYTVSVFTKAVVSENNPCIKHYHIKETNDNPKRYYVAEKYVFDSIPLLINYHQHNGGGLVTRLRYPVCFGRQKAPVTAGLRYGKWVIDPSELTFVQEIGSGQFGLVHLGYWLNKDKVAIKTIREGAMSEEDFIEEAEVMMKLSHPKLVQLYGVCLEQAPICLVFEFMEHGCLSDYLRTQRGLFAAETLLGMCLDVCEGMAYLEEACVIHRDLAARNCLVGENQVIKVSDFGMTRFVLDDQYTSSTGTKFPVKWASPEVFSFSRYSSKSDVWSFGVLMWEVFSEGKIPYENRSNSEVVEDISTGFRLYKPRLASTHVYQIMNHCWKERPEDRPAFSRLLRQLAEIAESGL
From the text: as §1, §2

[4] = biological target: protein kinases (human kinome) (Homo sapiens, UniProt P53671); settings: for logFC of LIMK2: LIMK2 P53671; for logFC LIMK2: LIMK2 (P53671), down
From the text: as §1, §2

[5] = system: protein kinases (human kinome); settings: for logFC MAPK14: experiment wp047
From the text: as §1, §2

[6] = biological target: protein kinases (human kinome) (Homo sapiens, UniProt Q16539)
From the text: as §1, §2

[7] = biological target: protein kinases (human kinome) (Homo sapiens, UniProt P53667); settings: LIMK1 (P53667-1)
From the text: as §1, §2

[8] = biological target: protein kinases (human kinome) (Homo sapiens, UniProt P51451); settings: for logFC of BLK (P51451): down
From the text: as §1, §2

[9] = biological target: T2, protein kinases (human kinome) (Homo sapiens, UniProt Q9UEE5); settings: STK17A Q9UEE5; experiment wp149
T2 sequence (Q9UEE5 1-414): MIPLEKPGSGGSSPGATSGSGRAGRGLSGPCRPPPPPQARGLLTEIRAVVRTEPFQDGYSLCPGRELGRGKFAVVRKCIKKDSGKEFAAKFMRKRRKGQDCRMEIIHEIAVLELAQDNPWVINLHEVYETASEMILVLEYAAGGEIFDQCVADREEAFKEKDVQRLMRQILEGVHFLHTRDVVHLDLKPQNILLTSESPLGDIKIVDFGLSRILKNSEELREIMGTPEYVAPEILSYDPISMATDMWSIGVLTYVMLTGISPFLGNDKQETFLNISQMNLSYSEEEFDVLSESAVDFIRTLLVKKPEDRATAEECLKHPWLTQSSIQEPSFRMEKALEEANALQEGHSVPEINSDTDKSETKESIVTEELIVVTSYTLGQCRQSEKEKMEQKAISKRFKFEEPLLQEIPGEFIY
From the text: as §1, §2

[10] = biological target: protein kinases (human kinome) (Homo sapiens, UniProt P42684)
From the text: as §1, §2

[11] = biological target: protein kinases (human kinome) (Homo sapiens, UniProt P41240); settings: experiment wp045
From the text: as §1, §2

[12] = biological target: T3, protein kinases (human kinome) (Homo sapiens, UniProt O14965)
T3 sequence (O14965 1-403): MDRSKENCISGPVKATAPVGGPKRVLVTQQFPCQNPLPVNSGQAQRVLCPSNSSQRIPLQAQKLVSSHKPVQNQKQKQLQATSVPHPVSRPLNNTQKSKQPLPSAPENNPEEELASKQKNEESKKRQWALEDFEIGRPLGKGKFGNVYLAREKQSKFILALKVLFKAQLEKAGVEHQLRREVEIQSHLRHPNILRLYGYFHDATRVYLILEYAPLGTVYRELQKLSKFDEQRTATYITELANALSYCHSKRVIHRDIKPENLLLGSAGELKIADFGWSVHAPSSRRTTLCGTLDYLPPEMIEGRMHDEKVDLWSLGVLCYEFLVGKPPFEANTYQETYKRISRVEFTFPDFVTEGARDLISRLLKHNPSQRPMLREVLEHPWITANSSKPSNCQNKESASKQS
From the text: as §1, §2

[13] = biological target: protein kinases (human kinome) (Homo sapiens, UniProt Q2M2I8); settings: experiment wp134
From the text: as §1, §2

[14] = biological target: protein kinases (human kinome) (Homo sapiens, UniProt Q00537)
From the text: as §1, §2

[15] = AURKB Q96GD4-5, experiment wp080

protein kinases (human kinome) (Homo sapiens, UniProt P11802), sequence (P11802 whole entry): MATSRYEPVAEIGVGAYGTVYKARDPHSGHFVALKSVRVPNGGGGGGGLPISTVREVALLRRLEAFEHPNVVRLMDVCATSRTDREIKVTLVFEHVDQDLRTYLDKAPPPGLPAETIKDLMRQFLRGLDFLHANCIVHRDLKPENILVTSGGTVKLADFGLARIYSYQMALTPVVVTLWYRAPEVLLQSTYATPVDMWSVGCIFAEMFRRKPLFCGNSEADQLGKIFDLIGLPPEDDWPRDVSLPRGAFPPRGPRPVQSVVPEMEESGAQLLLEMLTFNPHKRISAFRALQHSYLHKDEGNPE
protein kinases (human kinome) (Homo sapiens, UniProt P53671), sequence (P53671 whole entry): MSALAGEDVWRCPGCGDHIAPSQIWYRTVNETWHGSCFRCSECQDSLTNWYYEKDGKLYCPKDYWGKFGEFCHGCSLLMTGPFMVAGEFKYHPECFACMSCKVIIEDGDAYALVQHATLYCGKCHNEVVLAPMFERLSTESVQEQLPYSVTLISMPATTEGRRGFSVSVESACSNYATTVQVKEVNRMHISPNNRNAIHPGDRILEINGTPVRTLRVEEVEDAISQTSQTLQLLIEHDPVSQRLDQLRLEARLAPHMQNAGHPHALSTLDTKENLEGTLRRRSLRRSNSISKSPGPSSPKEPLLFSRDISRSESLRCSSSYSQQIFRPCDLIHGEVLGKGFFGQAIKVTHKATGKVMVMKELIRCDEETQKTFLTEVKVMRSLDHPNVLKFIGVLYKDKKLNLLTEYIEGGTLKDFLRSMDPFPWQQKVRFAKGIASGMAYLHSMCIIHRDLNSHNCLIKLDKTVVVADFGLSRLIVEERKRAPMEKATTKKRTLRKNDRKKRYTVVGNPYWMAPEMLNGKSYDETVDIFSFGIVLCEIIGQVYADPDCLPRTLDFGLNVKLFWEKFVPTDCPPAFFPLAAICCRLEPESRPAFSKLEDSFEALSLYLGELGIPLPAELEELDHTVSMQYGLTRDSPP
protein kinases (human kinome) (Homo sapiens, UniProt P30291), sequence (P30291 whole entry): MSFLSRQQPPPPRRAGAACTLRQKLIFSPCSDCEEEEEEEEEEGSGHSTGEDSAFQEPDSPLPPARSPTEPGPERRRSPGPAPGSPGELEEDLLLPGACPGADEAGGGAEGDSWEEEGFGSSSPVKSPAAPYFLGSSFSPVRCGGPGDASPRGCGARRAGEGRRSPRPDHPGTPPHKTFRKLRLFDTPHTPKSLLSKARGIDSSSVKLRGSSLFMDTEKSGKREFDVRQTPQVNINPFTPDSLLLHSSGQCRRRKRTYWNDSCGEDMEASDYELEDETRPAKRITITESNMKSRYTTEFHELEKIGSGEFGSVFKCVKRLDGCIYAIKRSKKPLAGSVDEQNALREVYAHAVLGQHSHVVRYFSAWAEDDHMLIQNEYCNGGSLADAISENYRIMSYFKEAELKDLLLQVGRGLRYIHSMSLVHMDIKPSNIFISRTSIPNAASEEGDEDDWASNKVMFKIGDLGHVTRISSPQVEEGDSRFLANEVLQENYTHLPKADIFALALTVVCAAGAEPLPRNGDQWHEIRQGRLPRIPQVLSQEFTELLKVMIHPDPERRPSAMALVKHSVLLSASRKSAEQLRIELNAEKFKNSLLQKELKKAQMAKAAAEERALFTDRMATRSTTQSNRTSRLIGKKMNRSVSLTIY
protein kinases (human kinome) (Homo sapiens, UniProt P53667), sequence (P53667 whole entry): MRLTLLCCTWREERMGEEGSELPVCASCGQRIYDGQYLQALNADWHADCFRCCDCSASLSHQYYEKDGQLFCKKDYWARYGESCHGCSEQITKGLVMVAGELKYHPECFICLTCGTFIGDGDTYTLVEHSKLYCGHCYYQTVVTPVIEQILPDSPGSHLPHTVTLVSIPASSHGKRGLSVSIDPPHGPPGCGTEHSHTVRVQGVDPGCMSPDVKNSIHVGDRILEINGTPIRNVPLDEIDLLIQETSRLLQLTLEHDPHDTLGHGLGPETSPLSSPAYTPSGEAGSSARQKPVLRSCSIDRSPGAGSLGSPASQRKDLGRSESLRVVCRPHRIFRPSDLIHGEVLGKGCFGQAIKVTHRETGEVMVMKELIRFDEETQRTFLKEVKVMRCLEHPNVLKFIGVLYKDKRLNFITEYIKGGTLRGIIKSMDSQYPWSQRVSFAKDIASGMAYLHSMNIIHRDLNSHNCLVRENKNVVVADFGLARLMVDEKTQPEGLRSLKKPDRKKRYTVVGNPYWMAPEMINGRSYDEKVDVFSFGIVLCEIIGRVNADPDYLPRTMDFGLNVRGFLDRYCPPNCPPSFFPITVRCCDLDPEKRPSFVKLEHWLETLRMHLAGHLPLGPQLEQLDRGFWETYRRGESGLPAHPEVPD
protein kinases (human kinome) (Homo sapiens, UniProt Q00537), sequence (Q00537 whole entry): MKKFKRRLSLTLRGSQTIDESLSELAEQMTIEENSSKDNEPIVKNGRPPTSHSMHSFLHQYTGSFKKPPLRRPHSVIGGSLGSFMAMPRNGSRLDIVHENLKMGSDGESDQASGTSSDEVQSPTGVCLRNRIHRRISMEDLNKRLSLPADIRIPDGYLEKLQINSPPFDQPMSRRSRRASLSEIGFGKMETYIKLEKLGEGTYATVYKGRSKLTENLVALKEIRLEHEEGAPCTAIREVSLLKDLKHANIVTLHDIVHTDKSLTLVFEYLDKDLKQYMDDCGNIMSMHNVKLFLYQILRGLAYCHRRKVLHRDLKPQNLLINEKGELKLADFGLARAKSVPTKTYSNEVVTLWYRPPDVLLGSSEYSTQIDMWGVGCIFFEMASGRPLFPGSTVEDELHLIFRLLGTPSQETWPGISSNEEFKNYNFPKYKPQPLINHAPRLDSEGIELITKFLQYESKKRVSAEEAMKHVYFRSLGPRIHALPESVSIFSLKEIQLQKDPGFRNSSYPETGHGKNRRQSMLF
protein kinases (human kinome) (Homo sapiens, UniProt P51451), sequence (P51451 whole entry): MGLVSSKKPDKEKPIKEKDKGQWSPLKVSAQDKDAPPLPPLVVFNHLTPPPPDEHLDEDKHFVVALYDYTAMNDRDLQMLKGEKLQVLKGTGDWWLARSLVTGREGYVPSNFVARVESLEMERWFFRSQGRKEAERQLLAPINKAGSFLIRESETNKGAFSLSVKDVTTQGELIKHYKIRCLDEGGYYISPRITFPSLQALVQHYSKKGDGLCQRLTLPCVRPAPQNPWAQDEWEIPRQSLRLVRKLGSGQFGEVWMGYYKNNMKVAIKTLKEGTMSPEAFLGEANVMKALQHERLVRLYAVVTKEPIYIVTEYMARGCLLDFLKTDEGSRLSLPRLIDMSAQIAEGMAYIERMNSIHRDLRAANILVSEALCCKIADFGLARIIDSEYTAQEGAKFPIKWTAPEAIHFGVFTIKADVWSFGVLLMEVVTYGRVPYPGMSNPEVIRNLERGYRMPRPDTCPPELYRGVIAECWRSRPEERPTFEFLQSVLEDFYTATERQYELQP
protein kinases (human kinome) (Homo sapiens, UniProt P41240), sequence (P41240 whole entry): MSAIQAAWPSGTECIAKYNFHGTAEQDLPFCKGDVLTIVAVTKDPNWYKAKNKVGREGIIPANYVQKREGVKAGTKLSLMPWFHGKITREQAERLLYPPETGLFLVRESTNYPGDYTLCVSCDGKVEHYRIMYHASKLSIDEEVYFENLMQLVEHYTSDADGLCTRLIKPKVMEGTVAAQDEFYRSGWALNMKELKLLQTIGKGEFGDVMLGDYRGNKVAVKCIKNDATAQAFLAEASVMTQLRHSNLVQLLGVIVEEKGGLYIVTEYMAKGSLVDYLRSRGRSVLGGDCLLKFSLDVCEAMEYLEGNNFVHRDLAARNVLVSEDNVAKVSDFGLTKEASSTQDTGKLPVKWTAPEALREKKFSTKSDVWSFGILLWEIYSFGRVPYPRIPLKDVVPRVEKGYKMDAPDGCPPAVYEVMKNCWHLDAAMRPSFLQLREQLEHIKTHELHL
protein kinases (human kinome) (Homo sapiens, UniProt P42684), sequence (P42684 whole entry): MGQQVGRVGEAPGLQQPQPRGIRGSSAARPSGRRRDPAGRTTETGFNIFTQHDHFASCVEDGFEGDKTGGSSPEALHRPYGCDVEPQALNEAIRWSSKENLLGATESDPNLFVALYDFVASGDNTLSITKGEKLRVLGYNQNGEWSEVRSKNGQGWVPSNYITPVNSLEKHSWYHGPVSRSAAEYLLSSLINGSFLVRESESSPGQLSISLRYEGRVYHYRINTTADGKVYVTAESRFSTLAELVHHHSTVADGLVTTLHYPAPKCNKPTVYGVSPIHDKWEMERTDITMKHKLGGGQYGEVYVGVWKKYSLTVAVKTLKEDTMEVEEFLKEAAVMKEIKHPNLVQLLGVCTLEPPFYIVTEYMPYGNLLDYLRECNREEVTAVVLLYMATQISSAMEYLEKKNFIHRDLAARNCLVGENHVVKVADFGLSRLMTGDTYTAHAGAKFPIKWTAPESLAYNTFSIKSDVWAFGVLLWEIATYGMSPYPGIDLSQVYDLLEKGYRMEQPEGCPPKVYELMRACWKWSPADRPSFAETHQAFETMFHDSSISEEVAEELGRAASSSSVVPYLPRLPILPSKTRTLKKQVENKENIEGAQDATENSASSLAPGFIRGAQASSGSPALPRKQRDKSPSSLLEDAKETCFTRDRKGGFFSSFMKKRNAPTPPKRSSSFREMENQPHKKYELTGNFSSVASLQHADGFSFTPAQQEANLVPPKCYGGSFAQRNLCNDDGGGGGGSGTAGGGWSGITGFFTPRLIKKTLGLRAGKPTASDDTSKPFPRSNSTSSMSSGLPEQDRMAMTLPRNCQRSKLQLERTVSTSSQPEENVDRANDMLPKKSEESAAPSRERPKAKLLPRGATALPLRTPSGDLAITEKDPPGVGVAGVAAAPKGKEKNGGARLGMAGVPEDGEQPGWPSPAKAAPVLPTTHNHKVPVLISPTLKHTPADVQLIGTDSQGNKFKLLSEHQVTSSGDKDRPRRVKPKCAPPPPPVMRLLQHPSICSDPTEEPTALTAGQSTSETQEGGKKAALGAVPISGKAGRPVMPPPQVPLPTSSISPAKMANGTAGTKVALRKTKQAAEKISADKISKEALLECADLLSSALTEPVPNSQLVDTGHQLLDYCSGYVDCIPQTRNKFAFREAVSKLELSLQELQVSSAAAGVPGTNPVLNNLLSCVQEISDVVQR

Structure (SMILES): CC(=O)c1c(C)c2cnc(Nc3ccc(N4CCN(CCCCNC(=O)CNc5cccc6c5C(=O)N(C5CCC(=O)NC5=O)C6=O)CC4)cn3)nc2n(C2CCCC2)c1=O (stereo not shown) [BSJ.01.147]
- logFC of WEE1 ([1]; WEE1 P30291-1, experiment wp084): −0.5617
- logFC WEE1 (P30291-1) ([1]; experiment wp005): −0.447
- logFC WEE1 (P30291-1) ([1]; experiment wp084): −0.5617
- logFC CDK4 (P11802) ([2]; experiment wp005): −1.415
- logFC CDK4 (P11802) ([2]; experiment wp084): −1.8

Structure (SMILES): COc1cc(C)c(Sc2cnc(NC(=O)c3ccc(N4CCN(CCCCCCCNC(=O)COc5cccc6c5C(=O)N(C5CCC(=O)NC5=O)C6=O)CC4)cc3)s2)cc1C(=O)N1CCN(C(C)=O)CC1 (stereo not shown) [BSJ.05.037]
- logFC ITK (Q08881) [3]: −1.816
- logFC of LIMK2 ([4]; experiment wp134): −0.4981

Structure (SMILES): Cc1ccc(NC(=O)c2cccc(C(C)(C)C#N)c2)cc1Nc1ccc2ncn(CCOCCOCCC(=O)N[C@H](C(=O)N3C[C@H](O)C[C@H]3C(=O)NCc3ccc(-c4scnc4C)cc3)C(C)(C)C)c(=O)c2c1 [DD.02.198]
- logFC MAPK14 ([5]; MAPK14, accession Q16539-2, direction of change down): −0.617
- logFC MAPK14 ([5]; MAPK14 Q16539-2): −0.617
- logFC ([6]; MAPK14 (Q16539) protein abundance, degrader vs DMSO, down): −1.387
- logFC MAPK14 ([6]; MAPK14, accession Q16539, experiment wp047, direction of change down): −1.387

Structure (SMILES): CN1c2ccccc2C(=O)Nc2cnc(Nc3ccc(N4CCN(C(=O)CCOCCNc5cccc6c5C(=O)N(C5CCC(=O)NC5=O)C6=O)CC4)cc3)nc21 (stereo not shown) [ZNL.03.127]
- logFC LIMK1 ([7]; direction down, experiment wp149): −0.4764
- logFC LIMK1 ([7]; experiment wp149, down): −0.4764
- logFC BLK ([8]; BLK (P51451), direction down, experiment wp149): −0.5024
- logFC of BLK (P51451) ([8]; Experiment wp149): −0.5024
- logFC LIMK2 ([4]; experiment wp149): −0.3944
- logFC of LIMK2 ([4]; experiment wp149): −0.3944
- logFC [9]: −0.4605
- logFC STK17A [9]: −0.4605
- logFC TNK2 (Q07912-3) ([5]; Experiment wp149, direction down): −0.8778
- logFC ([5]; TNK2 (Q07912-3), experiment wp149, direction down): −0.8778

Structure (SMILES): Cc1nc(Nc2ncc(C(=O)Nc3c(C)cccc3Cl)s2)cc(N2CCN(CC(=O)NCCCCNC(=O)COc3cccc4c3C(=O)N(C3CCC(=O)NC3=O)C4=O)CC2)n1 (stereo not shown) [DB.3.291]
- logFC of BLK ([8]; BLK P51451, experiment wp045): −0.5857
- logFC of BLK (P51451) ([8]; Experiment wp045): −0.5857
- logFC WEE1 (P30291-1) ([1]; experiment wp045): −0.4161
- logFC ([10]; ABL2 (P42684) protein abundance, degrader vs DMSO, down): −0.3739
- logFC ABL2 (P42684) ([10]; Experiment wp045): −0.3739
- logFC of CSK ([11]; Accession P41240): −2.257
- logFC CSK ([11]; CSK (P41240), down): −2.257

Structure (SMILES): COc1cc(Nc2ncc3c(n2)-c2ccc(Cl)cc2C(c2c(F)cccc2OC)=NC3)ccc1C(=O)NCCCOCCOCCOCCCNC(=O)COc1cccc2c1C(=O)N(C1CCC(=O)NC1=O)C2=O (stereo not shown) [dAURK.4]
- logFC AURKA (O14965) ([12]; experiment wp080): −1.055
- logFC [5, 15]: −0.3932
- logFC AURKB [5, 15]: −0.3932

Structure (SMILES): CS(=O)(=O)c1ccc(-c2cccn3nc(Nc4cccc(N5CCN(CCCCCCNC(=O)COc6cccc7c6C(=O)N(C6CCC(=O)NC6=O)C7=O)CC5)c4)nc23)cc1 (stereo not shown) [JWG.120]
- logFC AAK1 ([13]; AAK1 (Q2M218-1), down): −0.3362
- logFC AAK1 ([13]; AAK1, accession Q2M218-1, direction of change down): −0.3362
- logFC AURKA (O14965) ([12]; experiment wp134): −1.562

Structure (SMILES): CC(=O)c1c(C)c2cnc(Nc3ccc(N4CCN(CC(=O)NCCOCCOCCOCCNc5cccc6c5C(=O)N(C5CCC(=O)NC5=O)C6=O)CC4)cn3)nc2n(C2CCCC2)c1=O (stereo not shown) [YKL.6.102]
- logFC WEE1 (P30291-1) ([1]; experiment wp005): −0.3649
- logFC CDK4 (P11802) ([2]; experiment wp005): −0.642

Structure (SMILES): Cc1ncsc1-c1ccc([C@H](C)NC(=O)[C@@H]2C[C@@H](O)CN2C(=O)[C@@H](NC(=O)CCOCCOCCNc2nccc(-c3sc(C(C)(C)C)nc3-c3cccc(NS(=O)(=O)c4c(F)cccc4F)c3F)n2)C(C)(C)C)cc1 [DD.03.156]
- logFC LIMK1 ([7]; direction down, experiment wp056): −1.037
- logFC LIMK1 ([7]; experiment wp056, down): −1.037
- logFC of CDK17 ([14]; Accession Q00537, experiment wp056): −1.825
- logFC CDK17 (Q00537) ([14]; experiment wp056, direction of change down): −1.825
- logFC LIMK2 ([4]; experiment wp056): −1.703
- logFC of LIMK2 ([4]; experiment wp056): −1.703

Structure (SMILES): CC(C)(C)c1nc(-c2cccc(NS(=O)(=O)c3c(F)cccc3F)c2F)c(-c2ccnc(NCCOCCNC(=O)CCOCCOCCNc3cccc4c3C(=O)N(C3CCC(=O)NC3=O)C4=O)n2)s1 (stereo not shown) [DD-03-106, N-(2-(2-((4-(2-(tert-butyl)-4-(3-((2,6-difluorophenyl)sulfonamido)-2-fluorophenyl)thiazol-5-yl)pyrimidin-2-yl)amino)ethoxy)ethyl)-3-(2-(2-((2-(2,6-dioxopiperidin-3-yl)-1,3-dioxoisoindolin-4-yl)amino)ethoxy)ethoxy)propenamide]
- preference for degrading CDK17 [14]: strong preference for degrading CDK17
- kinases the bifunctional compound degrades ([5]; as stated for the structure in the embodiments): AURKA, BCKDK, CDK1, CDK16, CDK17, CDK2, CDK3, CDK4, CDK6, COQ8A, COQ8B, CSK, EIF2AK2, LIMK1, LIMK2, MAP3K20, NLK, PLK1, PDK1, PDK2, and TESK2
- Kinase hits ([5]; kinases significantly downregulated vs DMSO (fold change cutoff −1.25, P-value<0.01), ≤8 h, 0.1-5 μM degrader, 7 cell lines): AURKA, BCKDK, CDK1, CDK16, CDK17, CDK2, CDK3, CDK4, CDK6, COQ8A, COQ8B, CSK, EIF2AK2, LIMK1, LIMK2, MAP3K20, NLK, PLK1, PDK1, PDK2, TESK2
- Total no. kinase hits ([5]; number of degraded kinases per library compound): 21
